Data on 44 molecules can be found in patent US6414147B1, “2-amino-9-alkylpurines: GABA brain receptor ligands” (Neurogen Corporation, priority 1998, dated 2002).

With `CCCCn1cnc2c(Oc3cccnc3)nc(Nc3ccc(F)cc3)nc21.CS(=O)(=O)O` [compound 37, 2-[(4-Fluorophenyl)amino]-6-(pyrid-3-yloxy)-9-butyl-9H-purine methanesulfonate], the melting point was > 300 °C.

`CCCCn1cnc2c(OC)nc(Nc3ccc(OC)cc3)nc21` [compound 39, 2-[(4-Methoxyphenyl)amino]-6-methoxy-9-butyl-9H-purine] gave a melting point of 158 to 160 °C.

`CCCCn1cnc2c(OC)nc(Nc3ccc(OCC)cc3)nc21` [compound 40, 2-[(4-Ethoxyphenyl)amino]-6-methoxy-9-butyl-9H-purine] gave a melting point of 171 to 172 °C.

In turn, `CCCCn1cnc2c(OCC)nc(Nc3ccc(Cl)cc3)nc21` [compound 43, 2-[(4-Chlorophenyl)amino]-6-ethoxy-9-butyl-9H-purine] came in with a melting point of 164 °C.

As to `CCCCn1cnc2c(OC)nc(Nc3ccccc3OC)nc21` [compound 44, 2-[(2-Methoxyphenyl)amino]-6-methoxy-9-butyl-9H-purine], the melting point lay in the range of 101 to 103 °C.

`CCCCn1cnc2c(OC)nc(Nc3ccccc3OCC)nc21` [compound 45, 2-[(2-Ethoxyphenyl)amino]-6-methoxy-9-butyl-9H-purine] gave a melting point of 77 to 79 °C.

`CCCCn1cnc2c(OC)nc(Nc3ccccc3C)nc21` [compound 46, 2-[(2-Methylphenyl)amino]-6-methoxy-9-butyl-9H-purine] gave a melting point of 91 to 93 °C.

`CCCCn1cnc2c(OC)nc(Nc3ccc(OC)cc3OC)nc21` [compound 47, 2-[(2,4-Dimethoxyphenyl)amino]-6-methoxy-9-butyl-9H-purine] registered a melting point of 104 to 106 °C.

For `CCCCn1cnc2c(OCC)nc(Nc3ccc(OC)cc3OC)nc21` [compound 48, 2-[(2,4-Dimethoxyphenyl)amino]-6-ethoxy-9-butyl-9H-purine], the melting point was 86 to 88 °C.

On to `CCCCn1cnc2c(OCCOC)nc(Nc3ccc(OC)cc3OC)nc21` [compound 49, 2-[(2,4-Dimethoxyphenyl)amino]-6-(2-methoxyethoxy)-9-butyl-9H-purine], for which the melting point lay within 88 to 89 °C.

`CCCCn1cnc2c(Oc3ccccc3)nc(Nc3ccc(OC)cc3OC)nc21` [compound 50, 2-[(2,4-Dimethoxyphenyl)amino]-6-phenoxy-9-butyl-9H-purine]: the melting point is 129 to 131 °C.

Molecule `CCCCn1cnc2c(OCC)nc(Nc3ccc(C)cc3C)nc21` [compound 51, 2-[(2,4-Dimethylphenyl)amino]-6-ethoxy-9-butyl-9H-purine] yielded a melting point of 97 to 99 °C.

`CCCCn1cnc2c(OC)nc(Nc3ccc(OC)c(OC)c3)nc21` [compound 52, 2-[(3,4-Dimethoxyphenyl)amino]-6-methoxy-9-butyl-9H-purine] registered a melting point of 160 to 162 °C.

On to `CCCCn1cnc2c(OC)nc(Nc3ccc(OC)c(F)c3)nc21` [compound 53, 2-[(3-Fluoro-4-methoxyphenyl)amino]-6-methoxy-9-butyl-9H-purine], for which the melting point lay within 178 to 179 °C.

On to `CCCCn1cnc2c(OCC)nc(Nc3ccc(OC(C)C)cc3F)nc21.CS(=O)(=O)O` [compound 54, 2-[(2-Fluoro-4-isopropoxyphenyl)amino]-6-ethoxy-9-butyl-9H-purine methane sulfonate], for which the melting point was determined as 138 °C.

Take `CCCCn1cnc2c(OC)nc(Nc3ccc(OC)nc3)nc21` [compound 55, 2-[(2-Methoxypyrid-5-yl)amino]-6-methoxy-9-butyl-9H-purine]: the melting point lay within 171 to 172 °C.

Molecule `CCCCn1cnc2c(OCC)nc(Nc3ccc(OC)nc3)nc21` [compound 56, 2-[(2-Methoxypyrid-5-yl)amino]-6-ethoxy-9-butyl-9H-purine] yielded a melting point of 170 to 172 °C.

`CCCCn1cnc2c(OCCOC)nc(Nc3ccc(OC)nc3)nc21` [compound 57, 2-[(2-Methoxypyrid-5-yl)amino]-6-(2-methoxyethoxy)-9-butyl-9H-purine] came in with a melting point of 138 to 140 °C.

Molecule `CCCCn1cnc2c(OCCF)nc(Nc3ccc(OC)nc3)nc21` [compound 58, 2-[(2-Methoxypyrid-5-yl)amino]-6-(2-fluoroethoxy)-9-butyl-9H-purine] showed a melting point of 163 to 164 °C.

Molecule `CCCCn1cnc2c(OCC(F)F)nc(Nc3ccc(OC)nc3)nc21` [compound 59, 2-[(2-Methoxypyrid-5-yl)amino]-6-(2,2-difluoroethoxy)-9-butyl-9H-purine] yielded a melting point of 165 to 167 °C.

For the molecule `CCCCn1cnc2c(OCC(C)C)nc(Nc3ccc(OC)nc3)nc21` [compound 60, 2-[(2-Methoxypyrid-5-yl)amino]-6-(2-methylprop-1-oxy)-9-butyl-9H-purine], the melting point lay within 88 to 90 °C.

In the case of `C=CCOc1nc(Nc2ccc(OC)nc2)nc2c1ncn2CCCC` [compound 61, 2-[(2-Methoxypyrid-5-yl)amino]-6-(2-propen-1-oxy)-9-butyl-9H-purine], the melting point fell in the range of 174 to 176 °C.

`CCCCn1cnc2c(OCC3CCCO3)nc(Nc3ccc(OC)nc3)nc21` (centres unmarked) [compound 62, 2-[(2-Methoxypyrid-5-yl)amino]-6-tetrahydrofurfuryloxy-9-butyl-9H-purine] displayed a melting point of 147 to 149 °C.

Turning to `CCCCn1cnc2c(OCc3ccccn3)nc(Nc3ccc(OC)nc3)nc21` [compound 63, 2-[(2-Methoxypyrid-5-yl)amino]-6-(pyrid-2-ylmethoxy)-9-butyl-9H-purine], the melting point lay within 150 to 153 °C.

On to `CCCCn1cnc2c(Oc3ccccc3)nc(Nc3ccc(OC)nc3)nc21` [compound 64, 2-[(2-Methoxypyrid-5-yl)amino]-6-phenoxy-9-butyl-9H-purine], for which the melting point was 146 to 148 °C.

Turning to `CCCn1cnc2c(OCC(C)C)nc(Nc3ccc(OC)nc3)nc21` [compound 65, 2-[(2-Methoxypyrid-5-yl)amino]-6-(2-methylprop-1-oxy)-9-propyl-9H-purine], the melting point is 113 to 115 °C.

Take `CCCn1cnc2c(Oc3ccccc3)nc(Nc3ccc(OC)nc3)nc21` [compound 66, 2-[(2-Methoxypyrid-5-yl)amino]-6-phenoxy-9-propyl-9H-purine]: the melting point fell in the range of 188 to 190 °C.

`C=C(C)COc1nc(Nc2ccc(OC)nc2)nc2c1ncn2CCCC` [compound 67, 2-[(2-Methoxypyrid-5-yl)amino]-6-(2-methyl-2-propen-1-oxy)-9-butyl-9H-purine] gave a melting point of 131 to 133 °C.

Consider `CCCCn1cnc2c(OCC3CC3)nc(Nc3ccc(OC)nc3)nc21` [compound 68, 2-[(2-Methoxypyrid-5-yl)amino]-6-cyclopropylmethoxy-9-butyl-9H-purine], for which the melting point is 148 to 150 °C.

Turning to `C=CCSc1nc(Nc2ccc(OC)nc2)nc2c1ncn2CCCC` [compound 69, 2-[(2-Methoxypyrid-5-yl)amino]-6-allylthio-9-butyl-9H-purine], the melting point was in the range of 107 to 109 °C.

For `CCCCn1cnc2c(OCC)nc(Nc3ccc(OCC)nc3)nc21` [compound 71, 2-[(2-Ethoxypyrid-5-yl)amino]-6-ethoxy-9-butyl-9H-purine], the melting point is 167 to 169 °C.

Take `CCCCn1cnc2c(OCCOC)nc(Nc3ccc(OCC)nc3)nc21` [compound 72, 2-[(2-Ethoxypyrid-5-yl)amino]-6-(2-methoxyethoxy)-9-butyl-9H-purine]: the melting point lay in the range of 123 to 125 °C.

As to `C=CCOc1nc(Nc2ccc(OCC)nc2)nc2c1ncn2CCCC` [compound 73, 2-[(2-Ethoxypyrid-5-yl)amino]-6-(2-propen-1-oxy)-9-butyl-9H-purine], the melting point lay within 158 to 160 °C.

Turning to `CCCCn1cnc2c(OCCF)nc(Nc3ccc(OCC)nc3)nc21` [compound 74, 2-[(2-Ethoxypyrid-5-yl)amino]-6-(2-fluoroethoxy)-9-butyl-9H-purine], the melting point fell in the range of 156 to 157 °C.

The molecule `C=C(C)COc1nc(Nc2ccc(OCC)nc2)nc2c1ncn2CCCC` [compound 75, 2-[(2-Ethoxypyrid-5-yl)amino]-6-(2-methyl-2-propen-1-oxy)-9-butyl-9H-purine] came in with a melting point of 108 to 110 °C.

As to `CCCCn1cnc2c(OCc3cccs3)nc(Nc3ccc(OCC)nc3)nc21` [compound 76, 2-[(2-Ethoxypyrid-5-yl)amino]-6-(thien-2-ylmethoxy)-9-butyl-9H-purine], the melting point was in the range of 116 to 118 °C.

Consider `C=C(C)COc1nc(Nc2ccc(OCC)nc2)nc2c1ncn2CCC` [compound 77, 2-[(2-Ethoxypyrid-5-yl)amino]-6-(2-methyl-2-propen-1-oxy)-9-propyl-9H-purine], for which the melting point was in the range of 112 to 114 °C.

`C#CCOc1nc(Nc2ccc(OCC)nc2)nc2c1ncn2CCCC` [compound 78, 2-[(2-Ethoxypyrid-5-yl)amino]-6-(2-propyn-1-oxy)-9-butyl-9H-purine] showed a melting point of 151 to 153 °C.

For `CCCCn1cnc2c(OCC(F)F)nc(Nc3ccc(OCC)nc3)nc21` [compound 80, 2-[(2-Ethoxypyrid-5-yl)amino]-6-(2,2-difluoroethoxy)-9-butyl-9H-purine], the melting point is 151 to 152 °C.

On to `CCCCn1cnc2c(OCC(=O)OCC)nc(Nc3ccc(OCC)nc3)nc21` [compound 82, 2-[(2-Ethoxypyrid-5-yl)amino]-6-carboethoxymethoxy-9-butyl-9H-purine], for which the melting point is 77 to 80 °C.

For `CCCCn1cnc2c(OCC(C)C)nc(Nc3ccc(OCC)nc3)nc21` [compound 83, 2-[(2-Ethoxypyrid-5-yl)amino]-6-(2-methylprop-1-oxy)-9-butyl-9H-purine], the melting point lay in the range of 96 to 98 °C.

Consider `CCCCn1cnc2c(OCCO)nc(Nc3ccc(OCC)nc3)nc21` [compound 84, 2-[(2-Ethoxypyrid-5-yl)amino]-6-(2-hydroxyethoxy)-9-butyl-9H-purine], for which the melting point lay within 166 to 168 °C.

Regarding `CCCCn1cnc2c(OCC)nc(Nc3cnc4ccccc4c3)nc21` [compound 86, 2-[(Quinolin-3-yl)amino]-6-ethoxy-9-butyl-9H-purine], the melting point fell in the range of 186 to 188 °C.

`CCCCn1cnc2c(OCCC)nc(Nc3cnc4ccccc4c3)nc21` [compound 87, 2-[(Quinolin-3-yl)amino]-6-propoxy-9-butyl-9H-purine] had a melting point of 215 to 220 °C.
